Measurements as given in PubChem BioAssay AID651890 (Broad Institute, 2012).

System: T. cruzi Tulahuen amastigotes in L-6 cells, CPRG absorbance
Test: intracellular Chagas parasite inhibition in myoblasts – Tulahuen strain, L-6 host cells, dry powder, dose response (AID 651890)

Structure (SMILES): C[C@@H]1CN([C@@H](C)CO)C(=O)c2cccc(NC(=O)c3ccncc3)c2O[C@H]1CN(C)Cc1ccc(Oc2ccccc2)cc1
- IC50: 0.039 µM
